Reference: PubChem BioAssay (NCI)
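Five concentrations, 48 hours, 96-well plates. Abbreviation: GI50, concentration required for 50% inhibition of growth. The concentration for full growth arrest is given as TGI.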

Columns and labels:
Test in all cases: NCI-60 cell line screen, 48 h
SN12C renal = system: SN12C renal
SNB-19 CNS = system: SNB-19 CNS
SNB-75 CNS = system: SNB-75 CNS
EKVX NSCLC = system: EKVX NSCLC
UACC-62 melanoma = system: UACC-62 melanoma
NCI-H23 lung = system: NCI-H23 lung
UO-31 renal = system: UO-31 renal
ACHN renal = system: ACHN renal
SK-OV-3 ovarian = system: SK-OV-3 ovarian
UACC-257 melanoma = system: UACC-257 melanoma
A498 renal = system: A498 renal
HOP-62 NSCLC = system: HOP-62 NSCLC
SK-MEL-2 melanoma = system: SK-MEL-2 melanoma
NCI-H522 lung = system: NCI-H522 lung
K-562 leukemia = system: K-562 leukemia
HCT-15 colon = system: HCT-15 colon
M14 melanoma = system: M14 melanoma
HT29 colon = system: HT29 colon
786-0 renal = system: 786-0 renal
NCI/ADR-RES ovarian = system: NCI/ADR-RES ovarian
RPMI-8226 leukemia = system: RPMI-8226 leukemia
HS 578T breast = system: HS 578T breast
A549 NSCLC = system: A549 NSCLC
OVCAR-3 ovarian = system: OVCAR-3 ovarian
SK-MEL-28 melanoma = system: SK-MEL-28 melanoma
BT-549 breast = system: BT-549 breast
CAKI-1 renal = system: CAKI-1 renal
SR leukemia = system: SR leukemia
SF-295 CNS = system: SF-295 CNS
SF-268 CNS = system: SF-268 CNS
HCT-116 colon = system: HCT-116 colon
PC-3 prostate = system: PC-3 prostate
HOP-92 NSCLC = system: HOP-92 NSCLC
OVCAR-5 ovarian = system: OVCAR-5 ovarian
T-47D breast = system: T-47D breast
COLO 205 colon = system: COLO 205 colon
HCC-2998 colon = system: HCC-2998 colon
SF-539 CNS = system: SF-539 CNS
HL-60(TB) leukemia = system: HL-60(TB) leukemia
MALME-3M melanoma = system: MALME-3M melanoma
OVCAR-4 ovarian = system: OVCAR-4 ovarian
DU-145 prostate = system: DU-145 prostate
MOLT-4 leukemia = system: MOLT-4 leukemia
OVCAR-8 ovarian = system: OVCAR-8 ovarian
SW-620 colon = system: SW-620 colon
MCF7 breast = system: MCF7 breast
RXF 393 renal = system: RXF 393 renal
IGROV1 ovarian = system: IGROV1 ovarian
MDA-MB-231 breast = system: MDA-MB-231 breast
KM12 colon = system: KM12 colon
NCI-H226 lung = system: NCI-H226 lung
MDA-MB-468 breast = system: MDA-MB-468 breast
U251 CNS = system: U251 CNS
TK-10 renal = system: TK-10 renal
CCRF-CEM leukemia = system: CCRF-CEM leukemia
SK-MEL-5 melanoma = system: SK-MEL-5 melanoma
LOX IMVI melanoma = system: LOX IMVI melanoma
NCI-H460 lung = system: NCI-H460 lung

## COc1ccc(CCC2NCCc3c(Br)c4c(c(OC)c32)OCO4)cc1 (stereo unspecified)
SN12C renal
  GI50: 5.1 µM
  TGI: 42.7 µM
SNB-19 CNS
  GI50: 11.1 µM
  TGI: > 55.8 µM
SNB-75 CNS
  GI50: 7.93 µM
  TGI: 35.3 µM
EKVX NSCLC
  GI50: 11.5 µM
  TGI: > 55.8 µM
UACC-62 melanoma
  GI50: 1.34 µM
  TGI: 3.98 µM
NCI-H23 lung
  GI50: 6.79 µM
  TGI: 38.1 µM
UO-31 renal
  GI50: 7.85 µM
  TGI: > 55.8 µM
ACHN renal
  GI50: 8.23 µM
  TGI: > 55.8 µM
SK-OV-3 ovarian
  GI50: 10.5 µM
  TGI: > 55.8 µM
UACC-257 melanoma
  GI50: 9.2 µM
  TGI: > 55.8 µM
A498 renal
  GI50: 29 µM
  TGI: > 55.8 µM
HOP-62 NSCLC
  GI50: 2.68 µM
  TGI: > 55.8 µM
SK-MEL-2 melanoma
  GI50: 2.99 µM
  TGI: 16.5 µM
NCI-H522 lung
  GI50: 1.72 µM
  TGI: 10.1 µM
K-562 leukemia
  GI50: 1.84 µM
  TGI: > 55.8 µM
HCT-15 colon
  GI50: 3.53 µM
  TGI: > 55.8 µM
M14 melanoma
  GI50: 2.05 µM
  TGI: > 55.8 µM
HT29 colon
  GI50: 1.77 µM
  TGI: 8.33 µM
786-0 renal
  GI50: 9.75 µM
  TGI: > 55.8 µM
NCI/ADR-RES ovarian
  GI50: 6.99 µM
  TGI: 28.4 µM
RPMI-8226 leukemia
  GI50: 2.23 µM
  TGI: 15.9 µM
HS 578T breast
  GI50: 6.63 µM
  TGI: 28.3 µM
A549 NSCLC
  GI50: 4.01 µM
  TGI: > 55.8 µM
OVCAR-3 ovarian
  GI50: 3.37 µM
  TGI: 29.8 µM
SK-MEL-28 melanoma
  GI50: 2.5 µM
  TGI: 12.6 µM
BT-549 breast
  GI50: 7.45 µM
  TGI: 25.5 µM
CAKI-1 renal
  GI50: 3.08 µM
  TGI: > 55.8 µM
SR leukemia
  GI50: 2.33 µM
  TGI: 31.2 µM
SF-295 CNS
  GI50: 2.36 µM
  TGI: 41.6 µM
SF-268 CNS
  GI50: 12.5 µM
  TGI: > 55.8 µM
HCT-116 colon
  GI50: 1.84 µM
  TGI: > 55.8 µM
PC-3 prostate
  GI50: 6.16 µM
  TGI: > 55.8 µM
HOP-92 NSCLC
  GI50: 2.69 µM
  TGI: 18.2 µM
OVCAR-5 ovarian
  GI50: 3.28 µM
  TGI: 36.8 µM
T-47D breast
  GI50: 4.78 µM
  TGI: 27.3 µM
COLO 205 colon
  GI50: 2.84 µM
  TGI: 11.8 µM
HCC-2998 colon
  GI50: 6.82 µM
  TGI: 15.5 µM
SF-539 CNS
  GI50: 6 µM
  TGI: 14.3 µM
HL-60(TB) leukemia
  GI50: 2.44 µM
  TGI: 17.7 µM
MALME-3M melanoma
  GI50: 4.98 µM
  TGI: 13.5 µM
OVCAR-4 ovarian
  GI50: 12.6 µM
  TGI: > 55.8 µM
DU-145 prostate
  GI50: 15.9 µM
  TGI: > 55.8 µM
MOLT-4 leukemia
  GI50: 4.46 µM
  TGI: > 55.8 µM
OVCAR-8 ovarian
  GI50: 11.1 µM
  TGI: > 55.8 µM
SW-620 colon
  GI50: 1.76 µM
  TGI: 9.77 µM
MCF7 breast
  GI50: 7.13 µM
  TGI: 26.6 µM
RXF 393 renal
  GI50: 7.57 µM
  TGI: 39.4 µM
IGROV1 ovarian
  GI50: 3.92 µM
  TGI: 44.6 µM
MDA-MB-231 breast
  GI50: 2.08 µM
  TGI: 15.5 µM
KM12 colon
  GI50: 2.82 µM
  TGI: > 55.8 µM
NCI-H226 lung
  GI50: 6.71 µM
  TGI: > 55.8 µM
MDA-MB-468 breast
  GI50: 4.45 µM
  TGI: 15.9 µM
U251 CNS
  GI50: 10.7 µM
  TGI: > 55.8 µM
TK-10 renal
  GI50: 11.8 µM
  TGI: > 55.8 µM
CCRF-CEM leukemia
  GI50: 6.76 µM
  TGI: 37.3 µM
SK-MEL-5 melanoma
  GI50: 3.64 µM
  TGI: 11.9 µM
LOX IMVI melanoma
  GI50: 6.31 µM
  TGI: 14.5 µM
NCI-H460 lung
  GI50: 2.77 µM
  TGI: 21.7 µM
